# Where “and” joins values, the source holds several entries; their conditions need not be identical. Identical values can stand only once. Marks after values point to notes of the source that are not given here.
# Legend:
# [1] = biological target: T1, Yeast guanylate kinase (S. cerevisiae) (Saccharomyces cerevisiae, UniProt P15454); assay: Kinetic constants of yeast guanylate kinase for GCVMP and ACVMP; format: biochemical; conditions: for Km / Vmax: yeast GMPK, 30° C., pH 7.8, 4 mM ATP
# T1 sequence (P15454 1-187): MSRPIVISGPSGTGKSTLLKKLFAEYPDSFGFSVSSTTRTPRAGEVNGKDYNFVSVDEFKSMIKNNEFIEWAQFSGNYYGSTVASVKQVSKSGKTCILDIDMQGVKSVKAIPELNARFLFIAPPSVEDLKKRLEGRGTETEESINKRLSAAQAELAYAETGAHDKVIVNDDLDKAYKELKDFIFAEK
# Experimental: The kinetic constants for the yeast GMP kinase purified as described in Example 3 are determined under the following enzymatic assay conditions: The yeast GMP kinase is incubated for 10 min at 30° C. in 100 μl of 50 mM Tris/HCl buffer pH 7.8 containing 4 mM ATP, 10 mM MgCl2, 100 mM KCl, 1 mg/ml BSA (bovine serum albumin) and 5-100 μ[…] (40 nCi/nmol) or 200-3200 μ[…] (40 nCi/nmol). he reaction is stopped by heating the reaction mixture for 3 min at 80° C., 50 μl of 10 mM potassium phosphate buffer pH 3.5 are added, and after centrifugation for 2 min at 10,000×g, 100 μl of supernatant are analysed by high performance liquid chromatography (HPLC) in the following system: for the calculation of the kinetic constants, the quantity of yeast GMP kinase introduced into the enzymatic reaction is adjusted so as to convert at most 10% of the substrate initially introduced. The Michaelis curves are adjusted to the experimental points with the aid of the Grafit software (Sigma). […] For substrates entering into competition, the Vmax/Km constant determines the specificity of the enzyme for these substrates. It is known by the name of “specificity constant” [A. Fersht, Enzyme Structure and Mechanism, 1985, W. H. Fréeman and Co., London].
# [2] = biological target: T2, Human guanylate kinase (erythrocytes) (Homo sapiens, UniProt Q16774); conditions: human erythrocyte GMPK, published values a, c, cited from earlier work; for Km: b
# T2 construct: enzymatic preparations of guanylate kinase and of nucleoside diphosphate kinase of human erythrocytes; host or cells: human erythrocytes
# T2 sequence (Q16774 1-197): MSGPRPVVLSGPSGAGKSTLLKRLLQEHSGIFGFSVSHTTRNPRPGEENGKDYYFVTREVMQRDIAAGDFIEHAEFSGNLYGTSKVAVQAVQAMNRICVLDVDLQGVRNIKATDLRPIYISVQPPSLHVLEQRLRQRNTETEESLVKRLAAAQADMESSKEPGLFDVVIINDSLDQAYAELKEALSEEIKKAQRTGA
# [3] = biological target: HSV1-TK and GMPK from S. cerevisiae (Human herpesvirus 1, UniProt P0DTH5); assay: TK-GMPK coupling, % of products formed; format: biochemical, herpes simplex virus type 1; S. cerevisiae; conditions: for % of the products formed, NMP / % of the products formed, NDP: substrate 100 μM
# Experimental: (§1) In a preferred coupling mode, the incubation is carried out in 100 μl of 50 mM Tris/HCl buffer pH 7.8, containing 1 mg/ml of BSA (bovine serum albumin), 5 mM ATP, 4 mM MgCl2, 12 mM KCl, 2 mM DTT, 600 μM EDTA, 100 μM [8-3H]-GCV (40 nCi/nmol) or 100 μM [2-3H]-ACV 40 nCi/nmol and various quantities of TK, GuK and NDPK (cf Table 2).
# [4] = biological target: T3, HSV1-TK, GMPK and baker's yeast NDPK (Human herpesvirus 1, UniProt P0DTH5); assay: TK-GMPK-NDPK coupling with baker's yeast NDPK; format: biochemical, herpes simplex virus type 1; S. cerevisiae; conditions: substrate 100 μM
# T3 construct: purchased SIGMA
# [5] = biological target: T4, HSV1-TK, GMPK and human (erythrocyte) NDPK (Human herpesvirus 1, UniProt P0DTH5); assay: TK-GMPK-NDPK coupling with human erythrocyte NDPK; format: biochemical; conditions: substrate 100 μM
# T4 construct: purchased SIGMA; host or cells: human erythrocytes (NDPK)
# Experimental: as §1
# [6] = biological target: T5, HSV1-TK, GMPK and bovine (liver) NDPK (Human herpesvirus 1, UniProt P0DTH5); assay: TK-GMPK-NDPK coupling with bovine liver NDPK; format: biochemical; conditions: substrate 100 μM
# T5 construct: purchased SIGMA; host or cells: bovine liver (NDPK)
# Experimental: as §1
# [7] = biological target: T6, HSV1-TK/S. cerevisiae GMPK fusion protein (UniProt P0DTH5+P15454, V34A); assay: Phosphorylation to diphosphate by TK-GMPK fusion protein; format: biochemical, herpes simplex virus type 1; S. cerevisiae
# T6 construct: made in house; host or cells: E. coli BL21 DE3 pXL3098 (pET11a)
# T6 sequence (P0DTH5+P15454 with tags, fused parts or gaps P15454:V34A): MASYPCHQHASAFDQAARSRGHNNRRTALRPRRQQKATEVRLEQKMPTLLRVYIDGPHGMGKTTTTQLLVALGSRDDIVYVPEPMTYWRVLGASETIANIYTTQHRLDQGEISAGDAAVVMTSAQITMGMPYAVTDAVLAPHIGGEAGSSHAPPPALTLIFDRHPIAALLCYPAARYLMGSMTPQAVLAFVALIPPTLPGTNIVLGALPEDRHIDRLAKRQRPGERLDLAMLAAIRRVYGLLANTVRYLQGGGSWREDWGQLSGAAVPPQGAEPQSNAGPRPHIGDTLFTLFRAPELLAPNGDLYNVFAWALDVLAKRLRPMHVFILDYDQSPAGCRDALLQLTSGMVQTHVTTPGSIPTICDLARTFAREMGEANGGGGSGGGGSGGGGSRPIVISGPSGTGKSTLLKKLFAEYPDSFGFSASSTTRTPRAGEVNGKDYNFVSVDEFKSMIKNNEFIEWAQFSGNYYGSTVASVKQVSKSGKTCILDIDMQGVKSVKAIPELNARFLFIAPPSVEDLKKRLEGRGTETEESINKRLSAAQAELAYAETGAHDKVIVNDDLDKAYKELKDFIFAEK
# Experimental: (§2) The reaction is stopped by heating for 3 min at 80° C.; after centrifugation, 100 μl of incubation product are analyzed in the following system: […]
# [8] = biological target: Mixture wild type TK/GMPK (Human herpesvirus 1, UniProt P0DTH5); format: biochemical, herpes simplex virus type 1; S. cerevisiae; conditions: Mixture wild type/GMPK 1.66/0.33 μg; GCV 100 μM
# Experimental: as §2
# Mixture 2-865:H12/GMPK = assay: Phosphorylation to diphosphate by mixture of 2-865:H12 and GMPK; format: biochemical
# Experimental: The capacity of the TK-GMPK fusion protein to convert GCV or ACV to GCVDP or ACVDP compared with a synthetic mixture of TK and GMPK is determined in the following manner:
# as §2
# glioma = conditions: rats having a glioma, HSV1-TK gene expressed, 150 mg/kg doses injected; cited from earlier work
# mice = conditions: mouse, in vivo, 150 mg/kg; cited from earlier work
# [9] = TK 10.4 μg, GMPK 7.4 μg, 30 min
# [10] = TK 1.3 μg, GMPK 2.5 μg, yeast NDPK 0.75 μg, 60 min
# [11] = TK 10.4 μg, GMPK 7.4 μg, yeast NDPK 0.75 μg, 20 min
# [12] = TK 10.4 μg, GMPK 7.4 μg, yeast NDPK 1.5 μg, 30 min
# [13] = TK 10.4 μg, GMPK 7.4 μg, human NDPK 0.675 μg, 20 min
# [14] = TK 10.4 μg, GMPK 7.4 μg, human NDPK 6.75 μg, 30 min
# [15] = TK 10.4 μg, GMPK 7.4 μg, bovine NDPK 0.5 μg, 20 min
# [16] = TK 10.4 μg, GMPK 7.4 μg, bovine NDPK 5 μg, 30 min
# [17] = TK 11.7 μg, GMPK 74 μg, yeast NDPK 1.5 μg, 20 min
# [18] = TK 11.7 μg, GMPK 74 μg, yeast NDPK 15 μg, 30 min
# [19] = TK 11.7 μg, GMPK 74 μg, human NDPK 6.75 μg, 30 min
# [20] = TK 11.7 μg, GMPK 74 μg, bovine NDPK 5 μg, 30 min
compound,measurement,setting,value
ganciclovir monophosphate [GCVMP],Km,[1],18 µM
same,Vmax,[1],40 µmol/min/mg
same,phosphorylation rate of yeast guanylate kinase relative to human enzyme,[1]; yeast vs human GMPK,twice as high
same,Km,[2],42 to 54 µM and 40 µM
same,Vmax,[2],20^a μmol/min/mg
acyclovir monophosphate [ACVMP],Km,[1],280 µM
same,Vmax,[1],22 µmol/min/mg
same,Km,[2],218 µM and 209 to 753 µM and 330 µM
same,Vmax,[2],1.9^a μmol/min/mg and 3.6^c μmol/min/mg
"Nc1nc(O)c2ncn(COC(CO)CO)c2n1 [GCV, ganciclovir]",phosphorylation of ganciclovir to ganciclovir diphosphate,[3]; coupling of HSV1-TK and GMPK from S. cerevisiae,90%
same,"% of the products formed, NMP","[3]; TK 1.3 μg, GMPK 2.5 μg, 60 min",4.4%
same,"% of the products formed, NDP","[3]; TK 2.6 μg, GMPK 2.5 μg, 30 min",89.0%
same,"% of the products formed, NMP","[3]; TK 2.6 μg, GMPK 2.5 μg, 30 min",7.5%
same,"% of the products formed, NDP",[3]; [9],90.8%
same,"% of the products formed, NMP",[3]; [9],5.3%
same,"% of the products formed, NDP",[4]; [10],13.8%
same,"% of the products formed, NMP",[4]; [10],3.2%
same,"% of the products formed, NDP",[4]; [11],12.6%
same,"% of the products formed, NMP",[4]; [11],2.6%
same,"% of the products formed, NDP",[4]; [12],6.9%
same,"% of the products formed, NMP",[4]; [12],0.9%
same,"% of the products formed, NTP",[4]; [12],91.1%
same,"% of the products formed, NDP",[5]; [13],90.3%
same,"% of the products formed, NMP",[5]; [13],6.2%
same,"% of the products formed, NTP",[5]; [13],1.5%
same,"% of the products formed, NDP",[5]; [14],71.1%
same,"% of the products formed, NMP",[5]; [14],2.5%
same,"% of the products formed, NTP",[5]; [14],24%
same,"% of the products formed, NDP",[6]; [15],78.4%
same,"% of the products formed, NMP",[6]; [15],6.5%
same,"% of the products formed, NTP",[6]; [15],12.9%
same,"% of the products formed, NDP",[6]; [16],5.8%
same,"% of the products formed, NMP",[6]; [16],0.6%
same,"% of the products formed, NTP",[6]; [16],92%
same,GCVDP formed,"[7]; Fusion 2 μg, GCV 50 μM",4900** pmmol
same,GCVDP formed,"[7]; Fusion 2 μg, GCV 100 μM",8270** pmmol
same,"improvement in phosphorylation by TK-GMPK fusion protein, factor",[7]; compared with coincubation of wild-type TK enzyme and GMPK enzyme,≤ 1.8
same,GCVDP formed,[8],4660** pmmol
same,GCVDP formed,"Mixture 2-865:H12/GMPK; Mixture 2-865: H12/GMPK 1.66/0.33 μg, GCV 50 μM",5300** pmmol
same,tumour response,glioma,regressions of tumour
same,toxicity,mice,highly toxic
"Nc1nc2c(ncn2COCCO)c(=O)[nH]1 [ACV, acyclovir]","% of the products formed, NDP","[3]; TK 11.7 μg, GMPK 74 μg, 20 min",54%
same,"% of the products formed, NMP","[3]; TK 11.7 μg, GMPK 74 μg, 20 min",26.0%
same,"% of the products formed, NDP",[4]; [17],60.0%
same,"% of the products formed, NMP",[4]; [17],13.0%
same,"% of the products formed, NTP",[4]; [17],8%
same,"% of the products formed, NDP",[4]; [18],4.6%
same,"% of the products formed, NMP",[4]; [18],1.4%
same,"% of the products formed, NTP",[4]; [18],81%
same,"% of the products formed, NDP",[5]; [19],80.0%
same,"% of the products formed, NMP",[5]; [19],1.8%
same,"% of the products formed, NDP",[6]; [20],82.0%
same,"% of the products formed, NMP",[6]; [20],1.7%
same,"% of the products formed, NTP",[6]; [20],1.3%
same,GCVDP formed,"[7]; Fusion 50 μg, ACV 20 μM",1220** pmmol
same,GCVDP formed,"[7]; Fusion 50 μg, ACV 50 μM",2920** pmmol
same,GCVDP formed,"[7]; Fusion 50 μg, ACV 50 μM Incub 1 h",6740** pmmol
same,GCVDP formed,"[7]; Fusion 200 μg, ACV 100 μM",18500** pmmol
same,GCVDP formed,"Mixture 2-865:H12/GMPK; Mixture 2-865/H12/GMPK 133/66 μg, ACV 100 μM",17260** pmmol
same,GCVDP formed,"Mixture 2-865:H12/GMPK; Mixture 2-865: H12/GMPK 33/17 μg, ACV 20 μM",2325** pmmol
same,GCVDP formed,"Mixture 2-865:H12/GMPK; Mixture 2-865: H12/GMPK 33/17 μg, ACV 50 μM",3680** pmmol
same,GCVDP formed,"Mixture 2-865:H12/GMPK; Mixture 2-865: H12/GMPK 33/17 μg, ACV 50 μM Incub 1 h",5890** pmmol
